The values below come from patent US9637483B2, “Heterocyclic compound” (TAKEDA PHARMACEUTICAL COMPANY LIMITED, priority 2013, dated 2017).

Type in all cases: biochemical
Assay [1] concerns the target T1, JAK1 (Homo sapiens, UniProt P23458).
T1 construct: purchased Invitrogen
Put plainly: JAK1 enzyme inhibition test (LANCE method). Particulars: 1 μM test compound; for inhibition at 1 µM: read-out: JAK1 enzyme inhibitory activity (%, 1 μM). The procedure, abridged:
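Inhibition expressed against no-enzyme wells (100% inhibition), from time-resolved fluorescence at 665 nm after Eu-anti-phosphotyrosine antibody/EDTA detection. Kinase reaction ran 1 h at room temperature, pH 7.5 HEPES buffer, ULight-JAK1 substrate and ATP diluted to 300 nM and 150 μM before addition.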
On the technique in general: In TR-FRET formats the signal depends on donor and acceptor labels being close together.

For assay [2], the target named is T2, JAK2 (Homo sapiens, UniProt O60674).
T2 construct: purchased Invitrogen
T2 sequence (O60674 whole entry): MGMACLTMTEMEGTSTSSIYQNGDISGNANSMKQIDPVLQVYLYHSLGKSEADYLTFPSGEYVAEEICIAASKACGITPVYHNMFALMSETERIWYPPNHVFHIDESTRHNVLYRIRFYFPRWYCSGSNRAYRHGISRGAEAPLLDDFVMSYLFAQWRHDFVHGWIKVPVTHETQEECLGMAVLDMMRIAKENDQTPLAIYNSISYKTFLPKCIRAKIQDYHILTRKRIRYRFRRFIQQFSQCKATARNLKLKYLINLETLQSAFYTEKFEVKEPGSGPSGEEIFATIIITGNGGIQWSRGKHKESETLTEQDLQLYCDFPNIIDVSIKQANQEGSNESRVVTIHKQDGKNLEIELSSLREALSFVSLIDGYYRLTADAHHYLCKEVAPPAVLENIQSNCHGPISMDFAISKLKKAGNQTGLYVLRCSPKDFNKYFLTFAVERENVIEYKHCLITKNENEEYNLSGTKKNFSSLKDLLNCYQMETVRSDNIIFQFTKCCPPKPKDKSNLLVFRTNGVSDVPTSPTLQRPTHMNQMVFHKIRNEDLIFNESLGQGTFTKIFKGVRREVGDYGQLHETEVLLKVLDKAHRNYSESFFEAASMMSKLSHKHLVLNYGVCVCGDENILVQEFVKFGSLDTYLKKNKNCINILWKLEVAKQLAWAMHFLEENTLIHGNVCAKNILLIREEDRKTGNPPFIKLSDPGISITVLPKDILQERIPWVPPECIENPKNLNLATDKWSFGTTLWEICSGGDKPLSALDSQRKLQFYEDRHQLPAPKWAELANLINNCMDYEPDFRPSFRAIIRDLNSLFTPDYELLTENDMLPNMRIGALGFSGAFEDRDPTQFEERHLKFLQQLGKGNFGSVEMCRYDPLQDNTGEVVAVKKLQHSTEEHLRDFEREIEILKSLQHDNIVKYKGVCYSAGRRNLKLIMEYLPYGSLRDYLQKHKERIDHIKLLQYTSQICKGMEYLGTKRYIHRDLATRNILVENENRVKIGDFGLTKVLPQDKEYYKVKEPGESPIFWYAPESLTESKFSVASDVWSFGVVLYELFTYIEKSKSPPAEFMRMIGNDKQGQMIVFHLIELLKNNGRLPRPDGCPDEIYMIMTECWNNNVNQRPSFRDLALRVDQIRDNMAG
Put plainly: JAK2 enzyme inhibition test (LANCE method). Particulars: 1 μM test compound; for inhibition at 1 µM: read-out: JAK2 enzyme inhibitory activity (%, 1 μM). The gist of the method: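 TR-FRET (LANCE) read-out, ex 340/em 665 nm with 100 μs delay, after 1 hr room-temperature detection with europium anti-phosphotyrosine antibody and 20 mM EDTA. The preceding 1 hr kinase reaction combined JAK2, ULight-JAK1 substrate and ATP, added as 6 ng/mL, 300 nM and 45 μM solutions; enzyme-free wells defined 100% inhibition.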

For assay [3], the target named is T3, JAK3 (Homo sapiens, UniProt P52333).
T3 construct: purchased Invitrogen
T3 sequence (P52333 1-1124): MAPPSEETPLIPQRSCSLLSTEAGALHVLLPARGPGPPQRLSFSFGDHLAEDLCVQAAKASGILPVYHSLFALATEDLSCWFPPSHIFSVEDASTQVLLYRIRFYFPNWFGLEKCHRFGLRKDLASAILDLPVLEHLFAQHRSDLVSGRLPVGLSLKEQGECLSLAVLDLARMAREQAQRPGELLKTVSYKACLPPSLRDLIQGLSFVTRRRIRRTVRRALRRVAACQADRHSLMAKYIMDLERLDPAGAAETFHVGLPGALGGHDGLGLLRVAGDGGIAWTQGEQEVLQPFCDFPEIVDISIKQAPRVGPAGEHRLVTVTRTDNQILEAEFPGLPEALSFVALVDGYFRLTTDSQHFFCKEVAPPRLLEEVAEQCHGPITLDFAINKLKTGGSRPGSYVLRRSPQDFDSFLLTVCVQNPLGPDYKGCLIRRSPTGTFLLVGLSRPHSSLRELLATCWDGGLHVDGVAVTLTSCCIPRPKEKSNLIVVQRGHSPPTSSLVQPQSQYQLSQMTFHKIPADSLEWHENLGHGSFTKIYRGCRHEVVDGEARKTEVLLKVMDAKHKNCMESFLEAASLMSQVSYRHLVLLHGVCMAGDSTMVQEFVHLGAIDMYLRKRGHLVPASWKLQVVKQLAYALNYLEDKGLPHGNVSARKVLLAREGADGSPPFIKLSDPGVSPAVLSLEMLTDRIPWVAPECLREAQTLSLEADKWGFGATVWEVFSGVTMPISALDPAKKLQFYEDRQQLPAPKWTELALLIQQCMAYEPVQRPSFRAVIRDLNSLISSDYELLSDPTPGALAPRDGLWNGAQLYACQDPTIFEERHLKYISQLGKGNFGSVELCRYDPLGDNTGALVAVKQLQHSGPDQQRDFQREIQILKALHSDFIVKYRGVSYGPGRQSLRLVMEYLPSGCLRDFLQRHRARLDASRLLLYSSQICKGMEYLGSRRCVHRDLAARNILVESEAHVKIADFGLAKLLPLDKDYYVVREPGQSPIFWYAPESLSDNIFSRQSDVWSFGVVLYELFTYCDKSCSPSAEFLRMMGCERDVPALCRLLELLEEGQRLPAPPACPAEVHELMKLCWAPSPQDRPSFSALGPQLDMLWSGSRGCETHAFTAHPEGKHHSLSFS
Put plainly: JAK3 enzyme inhibition test (LANCE method). Particulars: 1 μM test compound; for inhibition at 1 µM: read-out: JAK3 enzyme inhibitory activity (%, 1 μM). The procedure, abridged:
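TR-FRET (LANCE) read: 1 h room-temperature reaction, EDTA quench, Eu-anti-phosphotyrosine antibody, emission 665 nm after 340 nm excitation. Added solutions held 12 ng/mL JAK3, 300 nM ULight-JAK1 substrate and 15 μM ATP (pH 7.5 HEPES). Activity expressed against no-enzyme wells defined as full inhibition.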

The target in assay [4] is T4, TYK2 (Homo sapiens, UniProt P29597).
T4 construct: purchased Invitrogen
T4 sequence (P29597 whole entry): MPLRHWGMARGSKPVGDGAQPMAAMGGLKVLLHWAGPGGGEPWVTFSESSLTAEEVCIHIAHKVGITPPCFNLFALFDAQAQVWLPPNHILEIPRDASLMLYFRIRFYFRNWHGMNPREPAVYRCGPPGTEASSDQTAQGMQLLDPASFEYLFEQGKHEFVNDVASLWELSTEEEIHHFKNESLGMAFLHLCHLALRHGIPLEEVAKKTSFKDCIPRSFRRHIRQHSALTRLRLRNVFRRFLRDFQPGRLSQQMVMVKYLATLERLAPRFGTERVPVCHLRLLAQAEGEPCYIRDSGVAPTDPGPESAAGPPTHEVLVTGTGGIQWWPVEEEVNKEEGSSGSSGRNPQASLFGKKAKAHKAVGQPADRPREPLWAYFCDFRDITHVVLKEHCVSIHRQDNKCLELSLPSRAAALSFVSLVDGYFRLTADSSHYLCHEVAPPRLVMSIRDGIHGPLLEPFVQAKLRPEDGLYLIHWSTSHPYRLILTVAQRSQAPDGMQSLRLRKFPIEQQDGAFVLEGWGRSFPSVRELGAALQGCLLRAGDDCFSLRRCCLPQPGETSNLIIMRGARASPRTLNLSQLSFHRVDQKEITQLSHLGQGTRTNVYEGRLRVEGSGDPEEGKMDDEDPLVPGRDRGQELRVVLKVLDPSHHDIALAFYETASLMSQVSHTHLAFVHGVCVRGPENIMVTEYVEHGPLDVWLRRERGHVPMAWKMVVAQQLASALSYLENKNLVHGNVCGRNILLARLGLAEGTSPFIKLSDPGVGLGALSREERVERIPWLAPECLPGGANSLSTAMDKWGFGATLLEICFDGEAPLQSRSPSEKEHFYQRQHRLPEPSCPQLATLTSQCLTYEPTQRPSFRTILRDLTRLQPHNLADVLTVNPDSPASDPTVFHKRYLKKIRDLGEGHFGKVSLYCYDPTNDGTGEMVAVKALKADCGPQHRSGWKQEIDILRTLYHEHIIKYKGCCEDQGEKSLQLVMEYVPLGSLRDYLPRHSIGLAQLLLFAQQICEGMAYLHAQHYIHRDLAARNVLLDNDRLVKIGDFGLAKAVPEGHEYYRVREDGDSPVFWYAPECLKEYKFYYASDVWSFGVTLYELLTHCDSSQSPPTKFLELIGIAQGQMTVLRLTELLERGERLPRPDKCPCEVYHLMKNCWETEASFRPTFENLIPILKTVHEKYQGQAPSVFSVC
The experiment in a line: TYK2 enzyme inhibition test (LANCE method). Particulars: 1 μM test compound; for inhibition at 1 µM: read-out: TYK2 enzyme inhibitory activity (%, 1 μM). The procedure, abridged:
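TR-FRET (LANCE) readout: after 1 h room-temperature kinase reaction, EDTA plus 4 nM Eu-labelled anti-phosphotyrosine antibody added, signal at 665 nm (340 nm excitation). Reaction combined TYK2, ULight-JAK1 substrate and ATP, prepared at 375 ng/mL, 300 nM and 30 μM before addition, in pH 7.5 HEPES/MgCl2 buffer; enzyme-free wells define full inhibition.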

T1 sequence (P23458 whole entry): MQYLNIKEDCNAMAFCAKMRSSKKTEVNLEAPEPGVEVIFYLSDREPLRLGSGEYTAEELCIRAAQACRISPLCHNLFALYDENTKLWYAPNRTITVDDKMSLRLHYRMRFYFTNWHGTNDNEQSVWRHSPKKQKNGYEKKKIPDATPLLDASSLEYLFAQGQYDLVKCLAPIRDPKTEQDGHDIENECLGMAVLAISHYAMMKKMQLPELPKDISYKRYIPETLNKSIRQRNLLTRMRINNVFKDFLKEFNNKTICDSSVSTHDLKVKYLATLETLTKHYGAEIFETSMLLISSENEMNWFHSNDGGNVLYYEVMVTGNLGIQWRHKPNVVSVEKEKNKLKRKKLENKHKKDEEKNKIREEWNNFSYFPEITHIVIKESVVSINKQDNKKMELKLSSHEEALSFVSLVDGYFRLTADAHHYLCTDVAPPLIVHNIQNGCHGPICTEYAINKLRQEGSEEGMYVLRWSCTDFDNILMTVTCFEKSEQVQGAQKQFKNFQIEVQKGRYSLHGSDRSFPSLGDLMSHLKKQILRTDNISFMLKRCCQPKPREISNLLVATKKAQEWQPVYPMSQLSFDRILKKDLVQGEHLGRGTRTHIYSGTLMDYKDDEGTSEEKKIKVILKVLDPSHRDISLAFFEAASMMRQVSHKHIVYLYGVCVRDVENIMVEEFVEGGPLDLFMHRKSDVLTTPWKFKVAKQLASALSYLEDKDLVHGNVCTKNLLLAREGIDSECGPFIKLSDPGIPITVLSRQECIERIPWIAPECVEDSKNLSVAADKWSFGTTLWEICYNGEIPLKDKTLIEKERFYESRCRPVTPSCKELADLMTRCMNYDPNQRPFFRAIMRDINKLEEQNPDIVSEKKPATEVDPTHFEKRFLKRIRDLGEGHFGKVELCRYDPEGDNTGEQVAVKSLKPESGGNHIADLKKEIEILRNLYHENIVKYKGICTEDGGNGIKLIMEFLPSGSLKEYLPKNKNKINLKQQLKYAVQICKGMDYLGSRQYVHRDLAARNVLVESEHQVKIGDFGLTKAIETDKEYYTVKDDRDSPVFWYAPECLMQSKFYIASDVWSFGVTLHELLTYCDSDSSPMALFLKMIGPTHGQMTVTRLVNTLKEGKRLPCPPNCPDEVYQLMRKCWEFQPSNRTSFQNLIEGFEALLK

Turning to `CC1CCCCC1n1cc(-c2cc(N3CCOCC3)n(C)n2)c2[nH]nc(N)c2c1=O` (stereo not shown) [Example 155, 3-amino-5-(2-methylcyclohexyl)-7-(1-methyl-5-(morpholin-4-yl)-1H-pyrazol-3-yl)-1,5-dihydro-4H-pyrazolo[4,3-c]pyridin-4-one], the “JAK1 enzyme inhibitory activity (%, 1 μM)” value in assay [1] came to 76%. Besides, the “JAK2 enzyme inhibitory activity (%, 1 μM)” value in assay [2] is given as 81%. In assay [3], the “JAK3 enzyme inhibitory activity (%, 1 μM)” value is reported as 98%. Besides, in assay [4], the “TYK2 enzyme inhibitory activity (%, 1 μM)” value was 101%.
Turning to `CC(C)C(n1cc(-c2cc(N3CCOCC3)n(C)n2)c2[nH]nc(N)c2c1=O)C(F)(F)F` (stereo not shown) [Example 82, 3-amino-7-(1-methyl-5-(morpholin-4-yl)-1H-pyrazol-3-yl)-5-(1,1,1-trifluoro-3-methylbutan-2-yl)-1,5-dihydro-4H-pyrazolo[4,3-c]pyridin-4-one], the inhibition at 1 µM in assay [1] came out at 89%; in assay [2] it was 87%; in assay [3], 97%; in assay [4] it was 99%.
Taken in the same sequence, the figures for `CC(C)[C@H](C)n1cc(-c2cc(N3CCC(C)(O)CC3)n(C)n2)c2[nH]nc(N)c2c1=O` [Example 18, 3-amino-7-(5-(4-hydroxy-4-methylpiperidin-1-yl)-1-methyl-1H-pyrazol-3-yl)-5-((2S)-3-methylbutan-2-yl)-1,5-dihydro-4H-pyrazolo[4,3-c]pyridin-4-one] were 96%, 98%, 99% and 99%.
On to `COC1(c2cc(-c3cn(C(C#N)C(C)C)c(=O)c4c(N)n[nH]c34)nn2C)CCC(F)(F)CC1` (stereo not shown) [Example 138, 2-(3-amino-7-(5-(4,4-difluoro-1-methoxycyclohexyl)-1-methyl-1H-pyrazol-3-yl)-4-oxo-1,4-dihydro-5H-pyrazolo[4,3-c]pyridin-5-yl)-3-methylbutanenitrile], for which, in assay [1], the “JAK1 enzyme inhibitory activity (%, 1 μM)” value was found to be 96%. The “JAK2 enzyme inhibitory activity (%, 1 μM)” value in assay [2] is 99%. Also, the “JAK3 enzyme inhibitory activity (%, 1 μM)” value in assay [3] is on record as 99%. Besides, the “TYK2 enzyme inhibitory activity (%, 1 μM)” value in assay [4] is on record as 99%.
Take `CC(C)[C@H](C)n1cc(-c2cc(C(C)(C)C#N)n(C)n2)c2[nH]nc(N)c2c1=O` [Example 57, 2-(3-(3-amino-5-((2S)-3-methylbutan-2-yl)-4-oxo-4,5-dihydro-1H-pyrazolo[4,3-c]pyridin-7-yl)-1-methyl-1H-pyrazol-5-yl)-2-methylpropanenitrile]: the inhibition at 1 µM in assay [1], in assay [2], in assay [3] and in assay [4] was 99% in each case.
In the case of `COC1(c2cc(-c3cn([C@@H](C)C4CC4)c(=O)c4c(N)n[nH]c34)nn2C)CN(C(=O)C(C)C)C1` [Example 97, 3-amino-5-((1S)-1-cyclopropylethyl)-7-(5-(1-isobutyryl-3-methoxyazetidin-3-yl)-1-methyl-1H-pyrazol-3-yl)-1,5-dihydro-4H-pyrazolo[4,3-c]pyridin-4-one], the inhibition at 1 µM in assay [1] turned out to be 97%; in assay [2], 99%; in assay [3], 99%; in assay [4] it was 100%.
As for `COC1(c2cc(-c3cn([C@@H](C)C4CC4)c(=O)c4c(N)n[nH]c34)nn2C)CN(S(=O)(=O)C(C)C)C1` [Example 98, 3-amino-5-((1S)-1-cyclopropylethyl)-7-(5-(1-(isopropylsulfonyl)-3-methoxyazetidin-3-yl)-1-methyl-1H-pyrazol-3-yl)-1,5-dihydro-4H-pyrazolo[4,3-c]pyridin-4-one], the inhibition at 1 µM in assay [1] was found to be 97%; in assay [2] it was 100%; in assay [3] it was 100%; in assay [4], 100%.
As to `CC(C)[C@H](C)n1cc(-c2cc(N3CCCOCC3)n(C)n2)c2[nH]nc(N)c2c1=O` [Example 13, 3-amino-5-((2S)-3-methylbutan-2-yl)-7-(1-methyl-5-(1,4-oxazepan-4-yl)-1H-pyrazol-3-yl)-1,5-dihydro-4H-pyrazolo[4,3-c]pyridin-4-one], the inhibition at 1 µM in assay [1] came to 97%; in assay [2] it was 99%; in assay [3], 99%; in assay [4], 100%.
In the case of `CNC[C@H]1CCCN1c1cc(-c2cn(C(C3CC3)C3CC3)c(=O)c3c(N)n[nH]c23)nn1C` [Example 172, 3-amino-5-(dicyclopropylmethyl)-7-(1-methyl-5-((2R)-2-((methylamino)methyl)pyrrolidin-1-yl)-1H-pyrazol-3-yl)-1,5-dihydro-4H-pyrazolo[4,3-c]pyridin-4-one], the inhibition at 1 µM in assay [1] came to 93%; in assay [2], 98%; in assay [3] it was 98%; in assay [4] it was 98%.
Take `CC(C)[C@H](C)n1cc(-c2cc(N3CCC(C)(O)C3)n(C)n2)c2[nH]nc(N)c2c1=O` (stereo partly drawn) [Example 64, 3-amino-7-(5-(3-hydroxy-3-methylpyrrolidin-1-yl)-1-methyl-1H-pyrazol-3-yl)-5-((2S)-3-methylbutan-2-yl)-1,5-dihydro-4H-pyrazolo[4,3-c]pyridin-4-one]: the “JAK1 enzyme inhibitory activity (%, 1 μM)” value in assay [1] amounted to 97%. For the same compound, in assay [2], the “JAK2 enzyme inhibitory activity (%, 1 μM)” value is 99%. Moreover, in assay [3], the “JAK3 enzyme inhibitory activity (%, 1 μM)” value came out at 99%. Besides, the “TYK2 enzyme inhibitory activity (%, 1 μM)” value in assay [4] was 100%.
On to `Cn1nc(-c2cn(C3CCCC3(C)C)c(=O)c3c(N)n[nH]c23)cc1CN1CCS(=O)(=O)CC1` (stereo not shown) [Example 75, 3-amino-5-(2,2-dimethylcyclopentyl)-7-(5-((1,1-dioxidothiomorpholin-4-yl)methyl)-1-methyl-1H-pyrazol-3-yl)-1,5-dihydro-4H-pyrazolo[4,3-c]pyridin-4-one], for which, in assay [1], the “JAK1 enzyme inhibitory activity (%, 1 μM)” value turned out to be 66%. Also, the “JAK2 enzyme inhibitory activity (%, 1 μM)” value in assay [2] is on record as 87%. In addition, the “JAK3 enzyme inhibitory activity (%, 1 μM)” value in assay [3] came out at 93%. In addition, the “TYK2 enzyme inhibitory activity (%, 1 μM)” value in assay [4] is on record as 92%.
Take `Cn1nc(-c2cn(C(C3CC3)C3CC3)c(=O)c3c(N)n[nH]c23)cc1C1CCCCC1` [Example 148, 3-amino-7-(5-cyclohexyl-1-methyl-1H-pyrazol-3-yl)-5-(dicyclopropylmethyl)-1,5-dihydro-4H-pyrazolo[4,3-c]pyridin-4-one]: the inhibition at 1 µM in assay [1] was 101%; in assay [2], 101%; in assay [3], 104%; in assay [4] it was 110%.
For `COC1(c2cc(-c3cn(-c4c(F)cccc4F)c(=O)c4c(N)n[nH]c34)nn2C)CN(C(=O)C(C)C)C1` [Example 130, 3-amino-5-(2,6-difluorophenyl)-7-(5-(1-isobutyryl-3-methoxyazetidin-3-yl)-1-methyl-1H-pyrazol-3-yl)-1,5-dihydro-4H-pyrazolo[4,3-c]pyridin-4-one], the inhibition at 1 µM is 96% in assay [1], 98% in assay [2], 99% in assay [3] and 101% in assay [4].
